Counter-ions that a name gives are not always drawn. Like-named read-outs stand apart in the source and are kept apart here.
What was measured:
[1] = 25° C.; cited from earlier work
[2] = Description: The (KH2PO4) solution was prepared according to the current USP (USP 34) (Table 25). Briefly, 50 mL of 0.2 M monobasic potassium phosphate (KH2PO4) was mixed with 39.1 mL of 0.2 M NaOH, and water was added to bring the solution to a final volume of 200 mL. During the test, the change in the pH of the solution also was measured for each addition.
in vivo [3] = conditions: female, beagle, dog, 0.14 mg/kg
Description: The protocol was designed as outlined in Table 23.
The method requires a lithium heparinized plasma sample volume of 200 μl. The extraction is a liquid liquid extraction with hexane, and the extracts are injected using an HPLC system and an […] (Applied Biosystems) for the MS/MS detection, with a “Onyx monolithic Phenomenex C18 100×3.0 mm” column.
Concentrations of the samples are calculated using Watson® 7.2.0.03 directly from chromatograms after automatic integration by Analyst® 1.5.1 and expressed as ng/mL. Mean plasma concentrations will be calculated (when calculable, i.e. n>2) using individual concentrations and will be expressed with the corresponding standard deviation value and variation coefficients (when calculable, i.e. n>3) (with CV(%)=(SD/mean)×100). The individual plasma concentrations are tabulated for each dog and scheduled sampling time. Concentrations below the LLOQ are designated as “BLQ.” All BLQ concentrations are substituted by zero for calculation of the descriptive statistics of the concentrations.
Pharmacokinetic analysis is carried out using […]® (Version 4.3 (Thermo Electron Corporation)). An independent model (non compartmental analysis) is used. All BLQ values in the absorption phase are substituted by zero, except for BLQ values between evaluable concentrations, which are treated as missing values, before the calculation of the pharmacokinetic variables. The terminal BLQ values are ignored. The following pharmacokinetic parameters are calculated:
5 non-naive female dogs are used, each dog receiving the test substance by oral administration via nasogastric tube to the stomach (NG) administration, sublingual administration (SL), and by intravenous (IV) administration. There is a “wash-out” period of at least two weeks between each type of administration. Blood samples are drawn as follows:
A single NG dose of 0.14 mg/kg (under a volume of 5 ml/kg and a solution concentration of 0.028 mg/mL) is administered.
After a wash-out period of at least 2 weeks, dogs are sedated using propofol (6.5 mg/kg IV). They will be then given a single sublingual dose of 0.14 mg/kg (under a volume of 0.056 mL/kg and a solution concentration of 2.5 mg/mL).
After a wash-out period of at least 2 weeks, dogs are given a single IV dose of 0.14 mg/kg (under a volume of 1 mL/kg, bolus of approximately 30 sec, and a solution concentration of 0.14 mg/mL).
Blood sampling was designed to minimize animal suffering and to ensure the quality of the biological samples, and was adapted from basic procedures commonly used in studies performed in dogs. Serial blood samples (1 tube of approximately 5 mL) are collected from a jugular vein using vacuum tubes containing lithium heparin. After sealing each tube, the blood samples are manually agitated and stored on ice until centrifugation (within 30 minutes of sampling). The samples are centrifuged at 1500 g, at 4° C., for 10 minutes. The entire resultant plasma obtained from each tube is immediately transferred to suitably labeled polypropylene tubes (3 aliquots of plasma of at least 500 μl each), which are stored upright at approximately −80° C. and protected from light until bioanalysis.
The dogs are fasted overnight before each administration, and food is given to the dogs 4 hours after each treatment. […] In each of the three routes, a potassium phosphate buffer (pH 7.4) is used as the vehicle.
As referred to in Example 4, a study was designed in order to assess the effects of the compositions and methods of the invention. […] The pharmacokinetic parameters were then calculated. A summary of the study design is as follows:
Blood was collected in a fasted condition for all three routes of administration. […] Briefly, the method involved liquid-liquid extraction with hexane. The extracts were injected using an HPLC system and an API4000® (Applied Biosystems) for the MS/MS detection, with an “Onyx monolithic Phenomenex C18 100×3.0 mm” column.

in vivo [4] = conditions: beagle, dog; for AUC(0-t): AUCt
Description: Each dog was sampled at pre-dose before and after Propofol (when possible) and at 5, 10 and 20 minutes post-dose.

[5] = iv, Cyclobenzaprine plasma concentration
[6] = po, Cyclobenzaprine plasma concentration

CN(C)CCC=C1c2ccccc2C=Cc2ccccc21 [cyclobenzaprine HCl]
acid dissociation constant (pKa) for the amine group [1]: approximately 8.5 | pH value ([2]; 10 g added to 100 mL Phosphate Buffer Solution pH 7.4): 6.43 | pH value ([2]; 10 g added to 100 mL purified water): 3.31 | pH value ([2]; 15 g added to 100 mL Phosphate Buffer Solution pH 7.4): 6.29 | pH value ([2]; 15 g added to 100 mL purified water): 3.24 | pH value ([2]; 20 g added to 100 mL Phosphate Buffer Solution pH 7.4): 6.21 | pH value ([2]; 20 g added to 100 mL purified water): 3.16 | pH value ([2]; 25 g added to 100 mL Phosphate Buffer Solution pH 7.4): 6.15 | pH value ([2]; 25 g added to 100 mL purified water): 3.11 | pH value ([2]; 30 g added to 100 mL Phosphate Buffer Solution pH 7.4): 6.10 | pH value ([2]; 30 g added to 100 mL purified water): 3.07 | solubility state in solution ([2]; […] at 7.4 containing K2HPO4 or KH2PO4): close to its saturation point | AUC(0-inf) (in vivo [3]; iv, AUCinf): 44.9 ± 4.15 ng·h/mL | AUC(0-t) (in vivo [3]; iv, AUCt): 43.5 ng·h/mL | clearance (in vivo [3]; iv, Cl): 52.3 mL/min/kg | concentration at 10 min (in vivo [3]; [5]): 21.1 ng/mL | concentration at 20 min (in vivo [3]; [5]): 17.3 ng/mL | concentration at 0.5 h (in vivo [3]; [5]): 14.3 ng/mL | concentration at 1 h (in vivo [3]; [5]): 9 ng/mL | concentration at 2 h (in vivo [3]; [5]): 6.5 ng/mL | concentration at 3 h (in vivo [3]; [5]): 4.43 ng/mL | concentration at 24 h (in vivo [3]; [5]): 0.1 ng/mL | Cl (Cl/F) (in vivo [3]; po): 1206 mL/min/kg | Kel (in vivo [3]; po): 0.4782 h⁻¹ | CL/F (in vivo [3]; po, Cl (Cl/F)): 1210 mL/min/kg | concentration at 6 h (in vivo [3]; [6]): 0.15 ng/mL | concentration at 8 h (in vivo [3]; [6]): 0.126 ng/mL | concentration at 10 h (in vivo [3]; [6]): 0.112 ng/mL | Vd/F (in vivo [3]; po, Vd (Vd/F)): 151 L/kg | half-life (in vivo [3]; po, t1/2): 86.9 min | AUCt (in vivo [4]): 22.78 ng·h/mL | Bioavailability F % IV without propofol vs sublingual with propofol (in vivo [4]): 197.0% | Cmax (in vivo [4]): 92.23 ng/mL | Tmax (in vivo [4]): 10 min | AUC(0-t) (in vivo [4]): 17.4 ng·h/mL | Cmax (in vivo [4]; Cmax): 75.6 ng/mL | AUCt (in vivo [4]; iv): 11.56 ng·h/mL | Cmax (in vivo [4]; iv): 40.10 ng/mL | Tmax (in vivo [4]; iv): 5 min | AUC(0-t) (in vivo [4]; iv): 7.67 ng·h/mL | Cmax (in vivo [4]; iv, Cmax): 26.8 ng/mL

From patent publication US20260232578A1, “COMPOSITIONS AND METHODS FOR TRANSMUCOSAL ABSORPTION” (Tonix Pharma Limited, priority 2012, published 2026)
